Data published in PubChem BioAssay (NCI).
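Step 1: Grow cells in 96-well plates. Step 2: Expose to compound for 48 hours at 5 concentrations. Step 3: Interpolate endpoints linearly; if unreached, use highest concentration. Abbreviation: GI50, concentration required for 50% inhibition of growth. TGI marks complete inhibition of growth.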

Tests used:
Assay in all cases: NCI-60 cell line screen, 48 h
786-0 renal = system: 786-0 renal
A498 renal = system: A498 renal
A549 NSCLC = system: A549 NSCLC
ACHN renal = system: ACHN renal
BT-549 breast = system: BT-549 breast
CAKI-1 renal = system: CAKI-1 renal
CCRF-CEM leukemia = system: CCRF-CEM leukemia
COLO 205 colon = system: COLO 205 colon
DU-145 prostate = system: DU-145 prostate
EKVX NSCLC = system: EKVX NSCLC
HCC-2998 colon = system: HCC-2998 colon
HCT-116 colon = system: HCT-116 colon
HCT-15 colon = system: HCT-15 colon
HL-60(TB) leukemia = system: HL-60(TB) leukemia
HOP-62 NSCLC = system: HOP-62 NSCLC
HOP-92 NSCLC = system: HOP-92 NSCLC
HS 578T breast = system: HS 578T breast
HT29 colon = system: HT29 colon
IGROV1 ovarian = system: IGROV1 ovarian
K-562 leukemia = system: K-562 leukemia
KM12 colon = system: KM12 colon
LOX IMVI melanoma = system: LOX IMVI melanoma
M14 melanoma = system: M14 melanoma
MALME-3M melanoma = system: MALME-3M melanoma
MCF7 breast = system: MCF7 breast
MDA-MB-231 breast = system: MDA-MB-231 breast
MDA-MB-435 = system: MDA-MB-435
MOLT-4 leukemia = system: MOLT-4 leukemia
NCI-H226 lung = system: NCI-H226 lung
NCI-H23 lung = system: NCI-H23 lung
NCI-H460 lung = system: NCI-H460 lung
NCI-H522 lung = system: NCI-H522 lung
NCI/ADR-RES ovarian = system: NCI/ADR-RES ovarian
OVCAR-3 ovarian = system: OVCAR-3 ovarian
OVCAR-4 ovarian = system: OVCAR-4 ovarian
OVCAR-5 ovarian = system: OVCAR-5 ovarian
OVCAR-8 ovarian = system: OVCAR-8 ovarian
PC-3 prostate = system: PC-3 prostate
RPMI-8226 leukemia = system: RPMI-8226 leukemia
RXF 393 renal = system: RXF 393 renal
SF-268 CNS = system: SF-268 CNS
SF-295 CNS = system: SF-295 CNS
SF-539 CNS = system: SF-539 CNS
SK-MEL-2 melanoma = system: SK-MEL-2 melanoma
SK-MEL-28 melanoma = system: SK-MEL-28 melanoma
SK-MEL-5 melanoma = system: SK-MEL-5 melanoma
SK-OV-3 ovarian = system: SK-OV-3 ovarian
SN12C renal = system: SN12C renal
SNB-19 CNS = system: SNB-19 CNS
SNB-75 CNS = system: SNB-75 CNS
SR leukemia = system: SR leukemia
SW-620 colon = system: SW-620 colon
T-47D breast = system: T-47D breast
TK-10 renal = system: TK-10 renal
U251 CNS = system: U251 CNS
UACC-257 melanoma = system: UACC-257 melanoma
UACC-62 melanoma = system: UACC-62 melanoma
UO-31 renal = system: UO-31 renal

Cc1cc2c([nH]1)CSc1cc(S(=O)(=O)c3ccccc3)c(=O)[nH]c1-2
GI50 (786-0 renal): 14.9 µM
TGI (786-0 renal): > 100 µM
GI50 (A498 renal): 22.1 µM
TGI (A498 renal): 69.7 µM
GI50 (A549 NSCLC): 43.8 µM
TGI (A549 NSCLC): > 100 µM
GI50 (ACHN renal): 13.3 µM
TGI (ACHN renal): > 100 µM
GI50 (BT-549 breast): 0.732 µM
TGI (BT-549 breast): > 74.4 µM
GI50 (CAKI-1 renal): 4.4 µM
TGI (CAKI-1 renal): > 58.4 µM
GI50 (CCRF-CEM leukemia): 0.452 µM
TGI (CCRF-CEM leukemia): > 100 µM
GI50 (COLO 205 colon): 14.1 µM
TGI (COLO 205 colon): 35.2 µM
GI50 (DU-145 prostate): 0.722 µM
TGI (DU-145 prostate): 13.2 µM
GI50 (EKVX NSCLC): 21 µM
TGI (EKVX NSCLC): > 100 µM
GI50 (HCC-2998 colon): 3.42 µM
TGI (HCC-2998 colon): > 42.6 µM
GI50 (HCT-116 colon): 0.368 µM
TGI (HCT-116 colon): 10.9 µM
GI50 (HCT-15 colon): 0.392 µM
TGI (HCT-15 colon): > 100 µM
GI50 (HL-60(TB) leukemia): 0.249 µM
GI50 (HOP-62 NSCLC): 2.09 µM
TGI (HOP-62 NSCLC): > 100 µM
GI50 (HOP-92 NSCLC): 0.139 µM
TGI (HOP-92 NSCLC): 1.32 µM
GI50 (HS 578T breast): 1.8 µM
TGI (HS 578T breast): 9.43 µM
GI50 (HT29 colon): 0.316 µM
GI50 (IGROV1 ovarian): 0.82 µM
TGI (IGROV1 ovarian): > 95.5 µM
GI50 (K-562 leukemia): 2.56 µM
TGI (K-562 leukemia): > 100 µM
GI50 (KM12 colon): 0.461 µM
TGI (KM12 colon): 5.24 µM
GI50 (LOX IMVI melanoma): 0.61 µM
TGI (LOX IMVI melanoma): > 73.2 µM
GI50 (M14 melanoma): 0.289 µM
TGI (M14 melanoma): 2.16 µM
GI50 (MALME-3M melanoma): 0.568 µM
TGI (MALME-3M melanoma): 75.9 µM
GI50 (MCF7 breast): 0.263 µM
TGI (MCF7 breast): 16.1 µM
GI50 (MDA-MB-231 breast): 1.63 µM
TGI (MDA-MB-231 breast): > 100 µM
GI50 (MDA-MB-435): 0.197 µM
TGI (MDA-MB-435): 0.46 µM
GI50 (MOLT-4 leukemia): 2.74 µM
TGI (MOLT-4 leukemia): > 100 µM
GI50 (NCI-H226 lung): 14.6 µM
TGI (NCI-H226 lung): > 88.7 µM
GI50 (NCI-H23 lung): 1.04 µM
TGI (NCI-H23 lung): 60.6 µM
GI50 (NCI-H460 lung): 20.6 µM
TGI (NCI-H460 lung): 68.5 µM
GI50 (NCI-H522 lung): 3.77 µM
TGI (NCI-H522 lung): 36.7 µM
GI50 (NCI/ADR-RES ovarian): 0.445 µM
TGI (NCI/ADR-RES ovarian): 2.17 µM
GI50 (OVCAR-3 ovarian): 0.246 µM
TGI (OVCAR-3 ovarian): 0.615 µM
GI50 (OVCAR-4 ovarian): 0.553 µM
TGI (OVCAR-4 ovarian): > 86.2 µM
GI50 (OVCAR-5 ovarian): 17.6 µM
TGI (OVCAR-5 ovarian): > 100 µM
GI50 (OVCAR-8 ovarian): 1.54 µM
TGI (OVCAR-8 ovarian): > 100 µM
GI50 (PC-3 prostate): 0.351 µM
TGI (PC-3 prostate): > 100 µM
GI50 (RPMI-8226 leukemia): 0.806 µM
TGI (RPMI-8226 leukemia): > 100 µM
GI50 (RXF 393 renal): 4.64 µM
TGI (RXF 393 renal): > 61.5 µM
GI50 (SF-268 CNS): 2.39 µM
TGI (SF-268 CNS): > 80.9 µM
GI50 (SF-295 CNS): 2.4 µM
TGI (SF-295 CNS): 8.09 µM
GI50 (SF-539 CNS): 0.327 µM
TGI (SF-539 CNS): 1.82 µM
GI50 (SK-MEL-2 melanoma): 1.46 µM
TGI (SK-MEL-2 melanoma): > 83.2 µM
GI50 (SK-MEL-28 melanoma): 4.67 µM
TGI (SK-MEL-28 melanoma): 42.5 µM
GI50 (SK-MEL-5 melanoma): 0.5 µM
TGI (SK-MEL-5 melanoma): 16.1 µM
GI50 (SK-OV-3 ovarian): 21.9 µM
TGI (SK-OV-3 ovarian): > 100 µM
GI50 (SN12C renal): 0.666 µM
TGI (SN12C renal): > 100 µM
GI50 (SNB-19 CNS): 2.16 µM
TGI (SNB-19 CNS): > 100 µM
GI50 (SNB-75 CNS): 1.56 µM
TGI (SNB-75 CNS): > 24 µM
GI50 (SR leukemia): 0.167 µM
TGI (SR leukemia): > 100 µM
GI50 (SW-620 colon): 0.306 µM
TGI (SW-620 colon): > 100 µM
GI50 (T-47D breast): 0.35 µM
TGI (T-47D breast): 55.1 µM
GI50 (TK-10 renal): 21.7 µM
TGI (TK-10 renal): > 100 µM
GI50 (U251 CNS): 0.388 µM
TGI (U251 CNS): > 100 µM
GI50 (UACC-257 melanoma): 17.3 µM
TGI (UACC-257 melanoma): > 100 µM
GI50 (UACC-62 melanoma): 0.465 µM
TGI (UACC-62 melanoma): > 39.6 µM
GI50 (UO-31 renal): 16.4 µM
TGI (UO-31 renal): > 93.6 µM

CC(=O)C(C)CCOC1(C)OCCC1C (configuration not stated)
TGI (786-0 renal): > 100 µM
TGI (A498 renal): > 100 µM
TGI (A549 NSCLC): > 100 µM
TGI (ACHN renal): > 100 µM
TGI (BT-549 breast): > 100 µM
TGI (CAKI-1 renal): > 100 µM
TGI (CCRF-CEM leukemia): > 100 µM
TGI (COLO 205 colon): > 100 µM
TGI (DU-145 prostate): > 100 µM
TGI (EKVX NSCLC): > 100 µM
TGI (HCC-2998 colon): > 100 µM
TGI (HCT-116 colon): > 100 µM
TGI (HCT-15 colon): > 100 µM
TGI (HL-60(TB) leukemia): > 100 µM
TGI (HOP-62 NSCLC): > 100 µM
TGI (HOP-92 NSCLC): > 100 µM
TGI (HS 578T breast): > 100 µM
TGI (HT29 colon): > 100 µM
TGI (IGROV1 ovarian): > 100 µM
TGI (K-562 leukemia): > 100 µM
TGI (KM12 colon): > 100 µM
TGI (LOX IMVI melanoma): > 100 µM
TGI (M14 melanoma): > 100 µM
TGI (MALME-3M melanoma): > 100 µM
TGI (MCF7 breast): > 100 µM
TGI (MDA-MB-231 breast): > 100 µM
TGI (MDA-MB-435): > 100 µM
TGI (MOLT-4 leukemia): > 100 µM
TGI (NCI-H226 lung): > 100 µM
TGI (NCI-H23 lung): > 100 µM
TGI (NCI-H460 lung): > 100 µM
TGI (NCI-H522 lung): > 100 µM
TGI (NCI/ADR-RES ovarian): > 100 µM
TGI (OVCAR-3 ovarian): > 100 µM
TGI (OVCAR-4 ovarian): > 100 µM
TGI (OVCAR-5 ovarian): > 100 µM
TGI (OVCAR-8 ovarian): > 100 µM
TGI (PC-3 prostate): > 100 µM
TGI (RPMI-8226 leukemia): > 100 µM
TGI (RXF 393 renal): > 100 µM
TGI (SF-268 CNS): > 100 µM
TGI (SF-295 CNS): > 100 µM
TGI (SF-539 CNS): > 100 µM
TGI (SK-MEL-2 melanoma): > 100 µM
TGI (SK-MEL-28 melanoma): > 100 µM
TGI (SK-MEL-5 melanoma): > 100 µM
TGI (SK-OV-3 ovarian): > 100 µM
TGI (SN12C renal): > 100 µM
TGI (SNB-19 CNS): > 100 µM
TGI (SNB-75 CNS): > 100 µM
TGI (SR leukemia): > 100 µM
TGI (SW-620 colon): > 100 µM
TGI (T-47D breast): > 100 µM
TGI (TK-10 renal): > 100 µM
TGI (U251 CNS): > 100 µM
TGI (UACC-257 melanoma): > 100 µM
TGI (UACC-62 melanoma): > 100 µM
TGI (UO-31 renal): > 100 µM
